Measured values as given in patent publication EP0068239A2, “Sulfamoylbenzoic acid derivatives and pharmaceutical compositions comprising same” (MITSUI TOATSU CHEMICALS, Inc., priority 1981, dated 1983).

Assays:
[1] = tested on: rats with DOCA/saline-induced hypertension; experiment: Hypotensive activity in rats with DOCA/saline-induced hypertension (systolic pressure measured indirectly through the caudal artery); type: in vivo, male Wistar rats; conditions: 30 mg/kg orally once a day for 5 days, versus initial value; for Percent change of systolic pressure Day 1: measured 4 hour after administration on day 1; for Percent change of systolic pressure Day 3: measured 4 hour after administration on day 3; for Percent change of systolic pressure Day 5: measured 4 hour after administration on day 5
Procedure: Evaluation Test 1 (Hypotensive activity in rats with DOCA/saline-induced hypertension]
Rats with DOCA/saline-induced hypertension were prepared according to the method described in an article by H. Selye, C.E. Hall and E.M. Rowly tCanadian Medical Association Journal, Vol. 49, p. 88, 1943). More specifically, 5-weeks-old male Wistar rats, weighing 100 to 120 g, were placed under anesthesia with ether and their left kidney was excised. Thereafter, they were allowed to take saline (a 1% aqueous solution of sodium chloride) instead of water. In addition, 10 mg/kg of deoxycorticosterone acetate was subcutaneously administered once a week. After 4-6 weeks, these rats developed hypertension.
Blood pressure was measured according to the method described in an article by M. Gerold and H. Tschirky (Arzneimittelforschung, Vol. 18, p. 1285, 1968). More specifically, using a Model 8002 or 8005 BP Recorder (W+W Electronic Co.), the systolic pressure of each rat was indirectly measured through the caudal artery. The rats were placed in a high-temperature environment (45±2°C) prior to every measurement. Among the rats (aged 15-17 weeks) with DOCA/saline-induced hypertension, only those showing a systolic pressure of 170 mmHg or above were used in groups of 3 or 4.
A compound to be tested was suspended in a 0.2% solution of carboxymethyl cellulose and administered orally to the rats in a dose of 30 mg/kg. This administration was performed once a day and continued for 5 days. Blood pressure measurements were made before the administration of the compound and 4 hour after the administration on days 1, 3, and 5.

anesthetized dogs = experiment: Diuretic effect in anesthetized dogs (urine collection via ureter cannulae); type: in vivo, Adult mongrel dogs; conditions: for ED100: 10 min, dose at which urine collected for 10 minutes after administration is twice the amount collected for 10 minutes before; for diuretic effect: high dose of 2 mg/kg
Procedure: Evaluation Test 2 [Diuretic effect in anesthetized dogs3
Adult mongrel dogs of either sex were used in this experiment. Each dog was anesthetized by intravenous administration of 30 mg/kg of pentobarbital sodium. Thereafter, a midline incision was made in the lower abdominal region and polyethylene cannulae for the collection of urine were inserted into the right and left ureters. In addition, a polyethylene cannula was inserted into the left femoral vein, through which 50 ml of physiological saline was administered. Thirty minutes after that, physiological saline was continuously infused at a rate of 1.5 ml/min. The experiment was started after the rate of urine excretion became constant. A compound to be tested was dissolved in dimethylformamide and administered intravenously by way of the right femoral vein, and blood pressure was surgically monitored by way of the right femoral artery.
The ED100 of the compound was defined as the dose at which the amount of urine collected for 10 minutes after the administration of the compound was equal to twice the amount of urine collected for 10 minutes before the administration.

[2] = Canis lupus familiaris, intravenous

SMILES | Percent change of systolic pressure Day 1 [1] [%] | Percent change of systolic pressure Day 3 [1] [%] | Percent change of systolic pressure Day 5 [1] [%] | ED100 (anesthetized dogs; [2]) [mg/kg] | diuretic effect (anesthetized dogs; intravenous) | minimal effective dose (anesthetized dogs; Canis lupus familiaris, intravenous, anesthetized dogs, read-out: dose at which the compound began to exert a diuretic effect) [mg/kg] | increase of urine excretion (factor) (anesthetized dogs; intravenous dose of 0.2 mg/kg)
CC1Cc2ccccc2N1NC(=O)c1cc(S(N)(=O)=O)c(Cl)cc1Br (stereo not shown) [Example 2, N-(2-bromo-4-chloro-5-sulfamoylbenzamido)-2-methylindoline] | -12 | -24 | -25 | > 2 | little diuretic effect | – | –
CC1Cc2ccccc2N1NC(=O)c1ccc(Cl)c(S(N)(=O)=O)c1 (stereo not shown) [Indapamide, N-(3-sulfamoyl-4-chlorobenzamido)-2-methylindoline, reference compound] | -13 | -20 | -22 | 0.2 | – | 0.05 | approximately 2
CC1Cc2ccccc2N1NC(=O)c1cc(S(N)(=O)=O)c(Cl)cc1Cl (stereo not shown) [Example 1, N-(2,4-dichloro-5-sulfamoylbenzamido)-2-methylindoline] | -12 | -25 | -28 | > 2 | little diuretic effect | – | –
